According to US20220362276A1, “Small Molecule Inhibitors of Viral Replication” (The Trustees of Princeton University, priority 2019, published 2022):
Entries after “also recorded” stand apart in the source; their conditions may differ.

Key:
HSP90AB1 (Hsp90β) = HSP90AB1 (Hsp90β) (Homo sapiens, UniProt P08238); assay: Two-dimensional thermal proteome profiling (CETSA) in crude cell extract; details: isocotoin 0.5-30 μM, 37-66.3 °C
[1] = tested on: TW6196E/Gluc (genotype 4); assay: Dose titration against TW6196E/Gluc replicon; details: genotype 4, poor replicative capacity
HEV = assay: In vivo testing in HEV-infected human liver chimeric mice, viral RNA in stool and serum; details: 50 mg/kg daily intraperitoneally, 7 days
[2] = tested on: YFV17D-Gluc-BSD-Ires (YFV17D); format: cell-based, yellow fever virus 17-D vaccine strain
[3] = tested on: p6/Gluc (HEVΔORF2/3[Gluc]) replicon, KernowC1p6 genotype 3; assay: Dose titration against p6/Gluc replicon in Huh7 cells, Gaussia luciferase readout; format: cell-based, hepatitis E virus
Protocol: Gaussia luciferase assays.
Statistics—calculation of IC50. Half maximal inhibitory concentrations were calculated by graphing dose-titration data as nonlinear curve fits with three parameters using GraphPad Prism (v8.1.2).

p6/Gluc[F470S] = assay: Dose titration against mutant replicon p6/Gluc[F470S]
p6/Gluc[G1634R] = assay: Dose titration against mutant replicon p6/Gluc[G1634R]
ABHD10 = molecular target: T1, ABHD10 (Homo sapiens, UniProt Q9NUJ1); assay: Two-dimensional thermal proteome profiling (CETSA) in crude cell extract; details: isocotoin 0.5-30 μM, 37-66.3 °C
T1 sequence (Q9NUJ1 53-306): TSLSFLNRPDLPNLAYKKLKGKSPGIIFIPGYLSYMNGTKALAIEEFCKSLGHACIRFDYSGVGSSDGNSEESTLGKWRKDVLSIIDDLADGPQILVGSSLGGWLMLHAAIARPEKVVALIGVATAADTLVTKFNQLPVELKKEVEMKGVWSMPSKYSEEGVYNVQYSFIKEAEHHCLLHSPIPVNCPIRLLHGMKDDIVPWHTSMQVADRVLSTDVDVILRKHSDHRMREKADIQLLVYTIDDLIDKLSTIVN

OTC = molecular target: T2, OTC (Homo sapiens, UniProt P00480); assay: as above; details: isocotoin 0.5-30 μM, 37-66.3 °C
T2 sequence (P00480 33-354): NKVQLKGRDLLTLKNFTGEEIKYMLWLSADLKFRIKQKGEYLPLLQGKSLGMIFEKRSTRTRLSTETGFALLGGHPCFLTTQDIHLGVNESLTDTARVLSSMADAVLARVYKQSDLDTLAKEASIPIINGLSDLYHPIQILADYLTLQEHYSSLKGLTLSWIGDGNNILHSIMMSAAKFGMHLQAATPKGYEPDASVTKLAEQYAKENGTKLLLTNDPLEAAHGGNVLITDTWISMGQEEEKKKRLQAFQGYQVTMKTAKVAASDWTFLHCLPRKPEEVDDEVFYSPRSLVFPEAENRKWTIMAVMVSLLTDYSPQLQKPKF

[4] = tested on: translation of T7-tagBFP-Gluc; assay: Translation inhibition assay (T7-tagBFP-Gluc RNA in Huh7 cells); format: cell-based; details: 4 days
Description: Generation of T7-tagBFP-Gluc. To make the T7-TagBFP-GLuc construct, SP6-TagBFP-2A-FLuc was used as a template and the primers PU-O-6099 and PU-O-6100 were designed to partially anneal immediately upstream and downstream of the SP6 promoter. The unbound portions of PU-O-6099 and PU-O-6100 contained the T7 promoter sequence. […] Next, PCR amplification of the T7-TagBFP-2A backbone was completed using the Q5® High-Fidelity DNA Polymerase and PU-O-6101 and PU-O-6102 as the primers. […] The Gluc insert was then ligated to the T7-TagBFP-2A backbone using the In-Fusion® HD Cloning Kit.
Translation Inhibition Assay. Huh7 cells were seeded at 6,250 cells per well in 96-well format. The cells were then transfected with 50 ng T7-TagBFP-Gluc in vitro transcribed RNA per well. Five hours post-transfection, transfection medium was changed to medium containing isocotoin, ribavirin, cycloheximide, or roclagamide at 6 or 7 different concentrations. DMSO concentration was kept constant in all the wells at 0.125%. For each drug dose, triplicate wells were tested. On day four post-transfection, a luciferase assay was performed on supernatant media to measure Gluc expression.

Jc1(p7nsGluc2A) (HCV) = format: cell-based, hepatitis C virus; details: Gluc, RLU normalized to untreated
Huh7 cells = assay: ATP-based cell viability assay (CellTiterGlo); details: Huh7 cells, day 4
Protocol: Measurement of Cytotoxicity by CellTiterGlo Assay. […] Readout was performed using a Berthold luminometer.

Sar55/Gluc (genotype 1) = assay: Dose titration against Sar55/Gluc replicon
[5] = tested on: p6/BSR-2A-ZsGreen replicon
HSPA14 = molecular target: T3, HSPA14 (Homo sapiens, UniProt Q0VDF9); assay: Two-dimensional thermal proteome profiling (CETSA) in crude cell extract; details: isocotoin 0.5-30 μM, 37-66.3 °C
T3 sequence (Q0VDF9 1-509): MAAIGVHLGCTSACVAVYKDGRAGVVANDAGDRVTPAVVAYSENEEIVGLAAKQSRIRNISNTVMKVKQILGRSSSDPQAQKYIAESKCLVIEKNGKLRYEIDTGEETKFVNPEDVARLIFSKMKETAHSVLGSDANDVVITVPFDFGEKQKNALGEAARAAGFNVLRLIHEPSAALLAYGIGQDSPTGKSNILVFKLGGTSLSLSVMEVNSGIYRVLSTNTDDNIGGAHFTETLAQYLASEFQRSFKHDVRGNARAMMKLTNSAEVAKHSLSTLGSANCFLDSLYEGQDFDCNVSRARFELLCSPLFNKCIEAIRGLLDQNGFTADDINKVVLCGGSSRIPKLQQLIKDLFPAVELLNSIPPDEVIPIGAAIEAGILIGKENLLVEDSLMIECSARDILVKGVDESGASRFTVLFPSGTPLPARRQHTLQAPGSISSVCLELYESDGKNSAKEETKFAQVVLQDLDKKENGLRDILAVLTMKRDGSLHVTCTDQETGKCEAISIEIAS

Chain of HSP90AB1 (Hsp90β) (P08238 whole entry): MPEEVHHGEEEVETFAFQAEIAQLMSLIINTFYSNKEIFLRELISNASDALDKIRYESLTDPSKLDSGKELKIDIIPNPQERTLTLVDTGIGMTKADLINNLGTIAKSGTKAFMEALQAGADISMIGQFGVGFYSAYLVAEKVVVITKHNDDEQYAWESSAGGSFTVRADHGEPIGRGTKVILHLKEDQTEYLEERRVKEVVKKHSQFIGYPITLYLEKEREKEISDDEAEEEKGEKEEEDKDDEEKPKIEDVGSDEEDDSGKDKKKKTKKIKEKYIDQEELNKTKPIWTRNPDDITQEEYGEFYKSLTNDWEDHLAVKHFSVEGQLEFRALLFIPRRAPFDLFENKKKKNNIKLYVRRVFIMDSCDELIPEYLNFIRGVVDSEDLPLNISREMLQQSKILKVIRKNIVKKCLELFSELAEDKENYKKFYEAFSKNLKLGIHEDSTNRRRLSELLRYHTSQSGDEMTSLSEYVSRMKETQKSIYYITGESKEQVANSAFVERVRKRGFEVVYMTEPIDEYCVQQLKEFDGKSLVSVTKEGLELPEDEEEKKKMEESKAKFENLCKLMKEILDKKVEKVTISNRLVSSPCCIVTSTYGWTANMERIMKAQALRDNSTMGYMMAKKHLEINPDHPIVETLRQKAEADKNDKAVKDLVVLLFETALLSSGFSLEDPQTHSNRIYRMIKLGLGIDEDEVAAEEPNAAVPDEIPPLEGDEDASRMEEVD

## COc1cc(O)cc(O)c1C(=O)c1ccccc1 [isocotoin, 4-benzoyl-5-methoxybenzene-1,3-diol]
HSP90AB1 (Hsp90β)
  thermal stabilization / soluble protein fraction of HSP90AB1: thermal stabilization; also recorded: relatively modest, but identifiable increase
[1]
  inhibition of TW6196E/Gluc replication, in words: modest inhibitory effect; also recorded: inhibits replication
HEV
  viral RNA levels in stool and serum pre- and post-treatment: not a clear decrease in viral levels; also recorded: did not result in a reduction in viral titers
[2]
  inhibition of YFV17D replication, in words: dose-dependent inhibitory effects; also recorded: to a greater extent than ribavirin
[3]; Hepatitis E virus, Huh-7, 96 h
  IC50: 6.1 µM
[3]; Huh7 cells, supernatant Gluc
  inhibition of p6/Gluc (HEV) replication, in words: lower IC50 than ribavirin; also recorded: dose-dependent inhibitory effects; also recorded: dose-dependent inhibition; also recorded: more efficiently than ribavirin; also recorded: inhibits replication; also recorded: to a greater extent than ribavirin
p6/Gluc[F470S]
  sensitivity of p6/Gluc[F470S], in words: higher sensitivity to isocotoin than to ribavirin
p6/Gluc[G1634R]
  sensitivity of p6/Gluc[G1634R], in words: higher sensitivity to isocotoin than to ribavirin
ABHD10
  soluble protein fraction of ABHD10: among hits showing the greatest increase in soluble protein fraction
OTC
  soluble protein fraction of OTC: among hits showing the greatest increase in soluble protein fraction
[4]
  effect on translation / Gluc levels, in words: did not lead to a significant decrease in Gluc levels; also recorded: do not inhibit translation
Jc1(p7nsGluc2A) (HCV)
  inhibition of HCV replication, in words: dose-dependent inhibitory effects; also recorded: to a greater extent than ribavirin
Huh7 cells
  doses at which cytotoxicity was displayed: ≥ 25 µM
  doses up to which no cytotoxicity was displayed: up to 12.5 μM
Sar55/Gluc (genotype 1)
  inhibition of Sar55/Gluc replication, in words: lower IC50 than ribavirin; also recorded: inhibits replication
[5]; 30 μM isocotoin dose
  toxicity to cells on passaging: some toxicity
[5]; 30 μM isocotoin, first few passages
  ZsGreen levels on passaging: sharp decrease in ZsGreen levels
HSPA14
  thermal shift of HSPA14: did not produce a thermal shift
